In one assay the target is PIK3CA (human) (UniProt P42336). Put plainly: Enzyme Assay.
In another assay the target is PIK3CB (Human) (UniProt P42338). Description: Enzyme Assay.
The next assay has as its target PIK3CD (Human) (UniProt O00329). Description: Enzyme Assay.
Assay [1] addresses PIK3CG (human) (UniProt P48736). Description: Enzyme Assay.
The target is the same in assay [2]. Put plainly: Cell-Based Assay. The following applies: u937.

Bounds are passed on as bounds.

Data on four compounds can be found in the Kinase Knowledgebase extract (Sharma et al. 2016).

The IC50 is the point on the concentration scale where inhibition reaches its midpoint. A lower IC50 goes with inhibition by little substance.

Chain of PIK3CA (human) (P42336 whole entry, looked up): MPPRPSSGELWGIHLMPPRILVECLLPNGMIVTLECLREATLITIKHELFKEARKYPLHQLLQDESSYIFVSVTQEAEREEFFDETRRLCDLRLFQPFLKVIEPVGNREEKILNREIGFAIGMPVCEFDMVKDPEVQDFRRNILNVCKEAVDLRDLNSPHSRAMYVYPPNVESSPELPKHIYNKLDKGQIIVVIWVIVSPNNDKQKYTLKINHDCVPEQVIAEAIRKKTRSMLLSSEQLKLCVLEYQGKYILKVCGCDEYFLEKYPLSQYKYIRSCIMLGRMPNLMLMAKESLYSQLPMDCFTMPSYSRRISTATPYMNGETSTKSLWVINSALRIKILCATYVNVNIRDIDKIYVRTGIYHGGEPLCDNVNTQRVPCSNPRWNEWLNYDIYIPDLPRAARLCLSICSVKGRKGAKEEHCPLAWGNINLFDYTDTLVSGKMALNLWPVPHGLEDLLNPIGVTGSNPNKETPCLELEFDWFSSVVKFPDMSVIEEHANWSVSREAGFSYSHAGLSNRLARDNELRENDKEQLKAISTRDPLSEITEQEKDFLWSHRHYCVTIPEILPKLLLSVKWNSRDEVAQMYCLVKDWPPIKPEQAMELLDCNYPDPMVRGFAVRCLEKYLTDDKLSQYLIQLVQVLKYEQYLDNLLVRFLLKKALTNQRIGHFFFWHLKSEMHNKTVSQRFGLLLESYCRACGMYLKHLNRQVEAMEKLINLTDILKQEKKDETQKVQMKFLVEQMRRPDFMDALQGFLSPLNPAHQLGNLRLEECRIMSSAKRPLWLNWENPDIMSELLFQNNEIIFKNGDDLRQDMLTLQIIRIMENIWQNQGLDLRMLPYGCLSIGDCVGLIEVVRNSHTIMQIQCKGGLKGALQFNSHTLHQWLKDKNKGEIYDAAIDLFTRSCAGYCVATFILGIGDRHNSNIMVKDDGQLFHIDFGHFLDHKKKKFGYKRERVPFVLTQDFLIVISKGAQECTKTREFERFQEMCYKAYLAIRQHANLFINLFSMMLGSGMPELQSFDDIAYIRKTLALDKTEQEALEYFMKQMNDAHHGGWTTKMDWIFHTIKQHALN
Chain of PIK3CG (human) (P48736 whole entry, looked up): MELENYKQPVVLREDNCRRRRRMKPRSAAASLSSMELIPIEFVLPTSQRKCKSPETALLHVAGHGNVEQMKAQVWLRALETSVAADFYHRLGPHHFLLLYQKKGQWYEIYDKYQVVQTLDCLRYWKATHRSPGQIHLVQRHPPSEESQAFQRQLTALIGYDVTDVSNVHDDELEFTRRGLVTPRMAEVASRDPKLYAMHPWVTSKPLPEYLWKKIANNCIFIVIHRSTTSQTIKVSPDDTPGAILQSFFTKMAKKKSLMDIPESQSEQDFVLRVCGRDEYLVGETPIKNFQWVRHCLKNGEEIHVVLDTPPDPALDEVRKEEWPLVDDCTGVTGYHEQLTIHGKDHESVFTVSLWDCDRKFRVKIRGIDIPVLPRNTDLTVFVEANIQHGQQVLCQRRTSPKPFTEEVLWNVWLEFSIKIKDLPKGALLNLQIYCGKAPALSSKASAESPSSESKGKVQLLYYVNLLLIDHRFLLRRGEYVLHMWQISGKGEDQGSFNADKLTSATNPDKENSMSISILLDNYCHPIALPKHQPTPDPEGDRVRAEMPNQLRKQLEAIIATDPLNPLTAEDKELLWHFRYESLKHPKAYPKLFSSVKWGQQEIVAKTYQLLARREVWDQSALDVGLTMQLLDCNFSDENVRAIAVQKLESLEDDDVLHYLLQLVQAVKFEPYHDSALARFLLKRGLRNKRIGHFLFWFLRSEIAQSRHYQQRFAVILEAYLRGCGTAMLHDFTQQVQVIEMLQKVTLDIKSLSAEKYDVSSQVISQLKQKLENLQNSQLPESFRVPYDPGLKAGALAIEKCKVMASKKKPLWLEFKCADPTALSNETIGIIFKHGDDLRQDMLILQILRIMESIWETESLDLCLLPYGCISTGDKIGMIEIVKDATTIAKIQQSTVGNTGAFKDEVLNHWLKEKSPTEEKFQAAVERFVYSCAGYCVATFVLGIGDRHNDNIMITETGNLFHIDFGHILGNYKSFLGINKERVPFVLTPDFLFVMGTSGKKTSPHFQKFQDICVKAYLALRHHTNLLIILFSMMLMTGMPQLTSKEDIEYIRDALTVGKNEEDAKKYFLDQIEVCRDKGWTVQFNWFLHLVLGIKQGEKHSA
Chain of PIK3CB (Human) (P42338 whole entry, looked up): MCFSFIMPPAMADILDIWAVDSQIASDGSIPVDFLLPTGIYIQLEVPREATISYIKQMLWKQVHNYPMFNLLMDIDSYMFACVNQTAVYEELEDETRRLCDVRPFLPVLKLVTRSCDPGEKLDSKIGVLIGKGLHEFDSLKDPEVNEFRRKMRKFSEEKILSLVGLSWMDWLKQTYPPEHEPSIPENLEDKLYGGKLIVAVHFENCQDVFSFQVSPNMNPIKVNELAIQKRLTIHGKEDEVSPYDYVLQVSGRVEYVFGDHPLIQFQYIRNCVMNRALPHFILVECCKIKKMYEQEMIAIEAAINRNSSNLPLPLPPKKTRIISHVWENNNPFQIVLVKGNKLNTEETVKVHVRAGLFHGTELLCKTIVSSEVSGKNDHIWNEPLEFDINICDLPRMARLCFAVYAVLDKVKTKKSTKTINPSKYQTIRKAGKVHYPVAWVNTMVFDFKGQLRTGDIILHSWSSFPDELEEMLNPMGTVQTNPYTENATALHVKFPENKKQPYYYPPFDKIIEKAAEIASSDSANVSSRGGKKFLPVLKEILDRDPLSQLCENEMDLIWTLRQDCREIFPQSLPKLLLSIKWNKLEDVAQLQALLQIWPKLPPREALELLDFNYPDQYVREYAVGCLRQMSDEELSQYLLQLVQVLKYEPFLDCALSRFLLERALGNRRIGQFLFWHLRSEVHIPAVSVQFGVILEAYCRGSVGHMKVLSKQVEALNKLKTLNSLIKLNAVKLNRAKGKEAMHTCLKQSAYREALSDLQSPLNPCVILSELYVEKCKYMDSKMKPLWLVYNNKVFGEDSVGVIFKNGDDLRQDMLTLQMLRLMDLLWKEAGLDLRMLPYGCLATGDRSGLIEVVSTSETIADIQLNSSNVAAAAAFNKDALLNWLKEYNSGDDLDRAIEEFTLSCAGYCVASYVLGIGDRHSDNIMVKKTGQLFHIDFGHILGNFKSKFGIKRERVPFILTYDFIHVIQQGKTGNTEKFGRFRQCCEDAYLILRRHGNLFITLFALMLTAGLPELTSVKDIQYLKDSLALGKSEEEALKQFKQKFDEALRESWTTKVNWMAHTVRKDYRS
Chain of PIK3CD (Human) (O00329 whole entry, looked up): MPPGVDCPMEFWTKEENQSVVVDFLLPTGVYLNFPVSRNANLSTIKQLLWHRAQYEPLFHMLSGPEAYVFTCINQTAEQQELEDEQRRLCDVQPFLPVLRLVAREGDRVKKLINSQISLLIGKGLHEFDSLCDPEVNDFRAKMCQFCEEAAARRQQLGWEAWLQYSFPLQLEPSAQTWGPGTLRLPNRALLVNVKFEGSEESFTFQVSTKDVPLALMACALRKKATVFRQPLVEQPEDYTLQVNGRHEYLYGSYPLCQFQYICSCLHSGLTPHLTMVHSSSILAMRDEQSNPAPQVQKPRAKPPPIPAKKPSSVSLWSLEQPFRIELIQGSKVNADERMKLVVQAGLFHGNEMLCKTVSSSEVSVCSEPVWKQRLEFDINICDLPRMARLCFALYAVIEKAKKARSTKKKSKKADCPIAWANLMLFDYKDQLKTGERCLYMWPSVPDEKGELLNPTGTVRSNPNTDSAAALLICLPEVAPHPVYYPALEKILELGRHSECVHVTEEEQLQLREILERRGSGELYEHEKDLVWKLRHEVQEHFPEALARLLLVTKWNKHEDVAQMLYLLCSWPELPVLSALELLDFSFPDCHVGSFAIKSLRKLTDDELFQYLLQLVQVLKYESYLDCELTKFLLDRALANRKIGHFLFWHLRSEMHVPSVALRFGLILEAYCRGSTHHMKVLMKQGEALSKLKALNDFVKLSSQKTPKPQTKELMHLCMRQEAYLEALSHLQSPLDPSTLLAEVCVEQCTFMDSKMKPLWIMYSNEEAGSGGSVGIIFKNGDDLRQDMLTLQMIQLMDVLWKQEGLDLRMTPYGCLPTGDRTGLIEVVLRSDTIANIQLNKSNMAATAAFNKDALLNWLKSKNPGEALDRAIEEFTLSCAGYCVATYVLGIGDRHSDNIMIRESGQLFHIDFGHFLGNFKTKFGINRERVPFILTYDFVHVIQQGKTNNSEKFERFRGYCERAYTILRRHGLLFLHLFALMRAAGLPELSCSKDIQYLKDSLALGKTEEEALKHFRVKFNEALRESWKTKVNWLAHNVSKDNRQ

Consider `Cc1cc(-c2cncc(-c3cc(S(=O)(=O)NC[C@H]4C[C@@H](O)C4)ccc3C)n2)n(C)n1`, for which the IC50 at PIK3CA (human) worked out at 0.1 µM; against PIK3CB (Human) it was 1.9 µM; on PIK3CD (Human) it was 0.04 µM; against PIK3CG (human) [1], 0.038 µM; on PIK3CG (human) [2], 0.122 µM.

Consider `Cc1ccc(S(=O)(=O)NC2CC3(CC(O)C3)C2)cc1-c1cncc(-c2cn(C)nc2C)n1` (stereo not given), for which the IC50 turned out to be 0.04 µM against PIK3CA (human); 0.45 µM against PIK3CB (Human); 0.09 µM against PIK3CD (Human); 0.013 µM on PIK3CG (human) [1]; 0.022 µM at PIK3CG (human) [2].

In the case of `Cc1ccc(S(=O)(=O)NC[C@H]2C[C@@H](O)C2)cc1-c1cncc(-c2cn(C)nc2C)n1`, the IC50 stood at 0.09 µM against PIK3CA (human); 0.63 µM at PIK3CB (Human); 0.1 µM at PIK3CD (Human); 0.011 µM against PIK3CG (human) [1]; 0.061 µM on PIK3CG (human) [2].

Consider `Cc1ccc(S(=O)(=O)N[C@H]2CC[C@H](O)CC2)cc1-c1cncc(-c2csc(CN3CCOCC3)c2)n1`, for which the IC50 at PIK3CA (human) was 0.16 µM; at PIK3CB (Human), over 9.1 µM; on PIK3CD (Human) it was 0.01 µM; against PIK3CG (human) [1], 0.006 µM; at PIK3CG (human) [2], 0.122 µM.
